Source: patent publication EP1218012B1, “USE OF ALPROSTADIL (PROSTAGLANDIN E1) FOR PRODUCING A MEDICAMENT FOR ANGIONEOGENESIS” (Mehrabi, Mohammad Reza, priority 1999, dated 2001)

Columns and labels:
VEGF = test: VEGF-positive capillaries in explanted hearts (immunohistochemistry); assay type: in vivo, Patienten
Excerpt: Um die Frage zu beantworten, ob nun die Alprostadil (PGE1)-Infusionstherapie […] HTX die […] von Patienten mit vorangegangener Alprostadil (PGE 1)-Infusionstherapie und von Patienten ohne alprostadil (PGE 1)-Therapie immunhistochemisch untersucht und die […]. Jedes […] Herz wurde in drei gleich große Stücke, nämlich in Spitze, mittleren und […]. Die […] transmural durch den […] immunohistochemische Analysen wurde sofort […] in Formaldehyd nach der üblichen Methode konserviert. Die […] wurde getrennt im Subepicardium, Myocardium und dem Subendocardium bestimmt. Die Bestimmung […] 1,mm^2 wurde getrennt anhand von anti-CD34, von Willebrand-Faktor (vwf), vascular-endothelial-growth-factor (VEGF) , anti-Ki 67 (MIB 1) und Sirius Rot, immunhistochemisch […]. VEGF ist beschrieben als spezifischer Wachstumsfaktor für Endothelzellen. Alprostadil (PGE 1)-behandelte Patienten zeigten bedeutend mehr VEGF-positive […] als die Kontrollgruppe (Fig.4) in allen drei untersuchten Abschnittsebenen (Subepicardium: 101,2 ± 5,5/mm^2 gegenüber 38.1 ± 7,2-VEGF-positive Zellen/mm^2, p <0,0001; Myocardium 76,2 ± 4,9/mm^2 gegenüber 20,6 ± 4,9/mm^2, p <0,0001; Subendocardium: 89,1 ± 5,7/mm^2 gegenüber 27,8 ± 5,1/mm^2, p <0,0001). Die Ergebnisse sind auch in Fig.6D, 8E und 8F dargestellt.

[1] = tested on: Patienten mit chronischer Herzinsuffizien; details: compared with the dobutamine-treated group; cited from earlier work
CD 34 = test: Anti-CD34 reactive endothelium in explanted hearts (immunohistochemistry); assay type: in vivo, Patienten
Excerpt: Um die Frage zu beantworten, ob nun die Alprostadil (PGE1)-Infusionstherapie […] HTX die […] von Patienten mit vorangegangener Alprostadil (PGE 1)-Infusionstherapie und von Patienten ohne alprostadil (PGE 1)-Therapie immunhistochemisch untersucht und die […]. Jedes […] Herz wurde in drei gleich große Stücke, nämlich in Spitze, mittleren und […]. Die […] transmural durch den […] immunohistochemische Analysen wurde sofort […] in Formaldehyd nach der üblichen Methode konserviert. Die […] wurde getrennt im Subepicardium, Myocardium und dem Subendocardium bestimmt. Die Bestimmung […] 1,mm^2 wurde getrennt anhand von anti-CD34, von Willebrand-Faktor (vwf), vascular-endothelial-growth-factor (VEGF) , anti-Ki 67 (MIB 1) und Sirius Rot, immunhistochemisch […]. CD 34 wird von allen Endothelzellen im normalen Gewebe exprimiert. CD 34 wird auch zum Nachweis von Endothel bzw. -zellen benutzt. Patienten nach einer Alprostadil (PGE […] Endothel (Fig.1) auf als die Kontrollgruppe (Subepicardium: 599,22 ± 107,17 mm^2 gegenüber 322,89 ± 160,64 mm^2-Zellen, p <0,001; Myocardium: 482,11 ± 79,86 mm^2 vs. 227,22 ± 49,30 mm^2 , p<0.0001; Subendocardium: 482,11 ± 79,86 mm^2 gegenüber 227,22 ± 49,30 mm^2, p <0,0001); Subendocardium: 551,67 ± 107.74 mm^2 gegenüber 308,56 ± 193.86 mm^2, p < 0,01). Die Ergebnisse sind auch in Fig.6A, 8A und 8B dargestellt.

[2] = tested on: Patienten mit akutem Leberversagen; details: treatment begun only 10 days after onset of clinical symptoms; cited from earlier work
Patienten = test: Hypertrophy: muscle count and percent muscle fraction per mm^2; assay type: in vivo; details: treated patients
Excerpt: In PGE1-behandelten Patienten wurden Muskelzahl/mm^2 mit prozentuellem Muskelanteil/mm^2 bestimmt und mit unbehandelten Patienten und gesunden Kontrollen verglichen. Die Ergebnisse sind in der nachfolgenden Tabelle angegeben.

[3] = tested on: Von Willebrand Faktor (vWf); test: Anti-vWf (factor VIII related antigen) reactive endothelium in explanted hearts (immunohistochemistry); assay type: in vivo, Patienten
Excerpt: Um die Frage zu beantworten, ob nun die Alprostadil (PGE1)-Infusionstherapie […] HTX die […] von Patienten mit vorangegangener Alprostadil (PGE 1)-Infusionstherapie und von Patienten ohne alprostadil (PGE 1)-Therapie immunhistochemisch untersucht und die […]. Jedes […] Herz wurde in drei gleich große Stücke, nämlich in Spitze, mittleren und […]. Die […] transmural durch den […] immunohistochemische Analysen wurde sofort […] in Formaldehyd nach der üblichen Methode konserviert. Die […] wurde getrennt im Subepicardium, Myocardium und dem Subendocardium bestimmt. Die Bestimmung […] 1,mm^2 wurde getrennt anhand von anti-CD34, von Willebrand-Faktor (vwf), vascular-endothelial-growth-factor (VEGF) , anti-Ki 67 (MIB 1) und Sirius Rot, immunhistochemisch […] Marker wurde Faktor VIII immunhistochemisch untersucht. Die Herzen von CMP-Patienten nach Alprostadil(PGE 1)-Infusionstherapie zeigten bedeutend […] Endothelien (Abb.2) verglichen mit der Kontrollgruppe (Subepicardium: 425,56 ± 134.17 mm^2 gegenüber 192,22 ± 77,88 mm^2-Zellen, p <0,001; Myocardium: 360,00 ± 52,31 mm^2 gegenüber 159,89 ± 61.00 mm^2 p <0,0001; Subendocardium: 408,00 ± 80,00 mm^2 gegenüber 163,89 ± 47,52 mm^2, p <0,0001). Die Ergebnisse sind auch in Fig.6B, 8C und 8D dargestellt.

MIB-1 (anti-Ki67) = MIB-1 (anti-Ki67) positive cells in explanted hearts (proliferation marker); assay type: in vivo, Patienten
Excerpt: Um die Frage zu beantworten, ob nun die Alprostadil (PGE1)-Infusionstherapie […] HTX die […] von Patienten mit vorangegangener Alprostadil (PGE 1)-Infusionstherapie und von Patienten ohne alprostadil (PGE 1)-Therapie immunhistochemisch untersucht und die […]. Jedes […] Herz wurde in drei gleich große Stücke, nämlich in Spitze, mittleren und […]. Die […] transmural durch den […] immunohistochemische Analysen wurde sofort […] in Formaldehyd nach der üblichen Methode konserviert. Die […] wurde getrennt im Subepicardium, Myocardium und dem Subendocardium bestimmt. Die Bestimmung […] 1,mm^2 wurde getrennt anhand von anti-CD34, von Willebrand-Faktor (vwf), vascular-endothelial-growth-factor (VEGF) , anti-Ki 67 (MIB 1) und Sirius Rot, immunhistochemisch […]. MIB-1 (anti-Ki67), ist ein Antikörper, der nur […], die nicht in der GO-Phase des Zellzyklus sind und wird üblicher Weise als Mitose- oder Proliferationsmarker eingesetzt. Er zeigt […] Reaktion bei mitotischen Zellen. Bei der Gruppe der Patienten mit Alprostadil(PGE 1)-Infusionstherapie war die Anzahl der MIB-1 positiven Zellen (Fig.3) in allen […] des Herzmuskels deutlich höher verglichen mit der Kontrollgruppe: (Subepicardium: 20,22 ± 4,87 pro mm^2 gegenüber 8,11 ± 2,67 pro mm^2, p <0,0001; Myocardium: 15,44 ± 4,64 pro mm^2 gegenüber 5,78 ± 2,11 pro mm^2, p <0,0001; Subendocardium: 17,84 ± 4,23 pro mm^2 gegenüber 6,89 ± 2,21 pro mm2). Die Ergebnisse sind auch in Fig.6C, 8G und 8H dargestellt.

Patienten mit CMP [4] = test: Clinical infusion therapy study in CMP patients awaiting heart transplantation (haemodynamics, clinical state, maximum tolerated dose); assay type: in vivo
Excerpt: Patienten mit CMP wurden für eine Herztranslation (HTX) angemeldet und medikamentös mit ACE-Hemmern, β-Blocker, Diuretika und Digitalis behandelt.
In einer vorangegangenen Studie erhielten mehrere Patienten mit Kardiomyopathie, darunter 9 Patienten mit dilatativer CMP vor einer HTX zusätzlich eine Alprostadil (PGE 1)-Infusionstherapie.
Die Einschlusskriterien für die Alprostadil (PGE 1)-Studie waren: • a. Patienten waren in ihrer täglichen Aktivität schwerwiegend eingeschränkt, obwohl sie eine maximale oralmedikamentöse Therapie mit ACE-Hemmer (Angiotensin-Converting-Enzym-Antagonisten), Diuretika und Digitalis bekamen. • b. Die Hämodynamik der Patienten zeigte einen niedrigen Herz-Index (< 2,5 L/min/m2) und einen höheren PCWP (pulmonory capillary wedge pressure) > 20 mm HG). • c. CMP-Patienten, die einen erhöhten peripheren Gefäßwiderstand aufweisen.
Die Infusionstherapie erfolgte unter laufender Messung der hämodynamischen Parameter. […] In dieser klinisch-experimentellen Studie wurde die Alprostadil (PGE1)-Infusionstherapie bei Patienten im Endstadium der Herizinsuffizienz im Sinne einer adjuvanten Therapie bis zur HTX verwendet.
Die Alprostadil (PGE1)-Infusionen erfolgten über einen zentralen Rechtsherzkatheter (Hickman-Katheter) mit einer anfänglichen Dosis von 2,5 ng/kg/min, die dann bis zur maximal tolerierten Dosis (MTD) gesteigert wurde. MTD war die Dosis, bei der eine der folgenden Nebenwirkungen auftraten: Muskelschmerzen, Knochenschmerzen, Blutdruckabfall, Übelkeit, Erbrechen, Durchfall, Kopfschmerzen oder andere Nebvenwirkungen. Unter der MTD (29 ± 1 ng/kg/min) wurden die hämodynamischen Parameter dokumntiert. Die MTD wurde in den folgenden 12 Stunden halbiert und nach der Stabilisierung der Hämodynamik wurde die Therapie mit einer tragbaren Pumpe zu Hause fortgesetzt.

Patienten mit CMP [5] = test: Capillary density in transmural sections of explanted hearts (immunohistochemistry); assay type: in vivo; details: for Kapillardichte: explanted hearts after infusion therapy
Excerpt: Um die Frage zu beantworten, ob nun die Alprostadil (PGE1)-Infusionstherapie […] HTX die […] von Patienten mit vorangegangener Alprostadil (PGE 1)-Infusionstherapie und von Patienten ohne alprostadil (PGE 1)-Therapie immunhistochemisch untersucht und die […]. Jedes […] Herz wurde in drei gleich große Stücke, nämlich in Spitze, mittleren und […]. Die […] transmural durch den […] immunohistochemische Analysen wurde sofort […] in Formaldehyd nach der üblichen Methode konserviert. Die […] wurde getrennt im Subepicardium, Myocardium und dem Subendocardium bestimmt. Die Bestimmung […] 1,mm^2 wurde getrennt anhand von anti-CD34, von Willebrand-Faktor (vwf), vascular-endothelial-growth-factor (VEGF) , anti-Ki 67 (MIB 1) und Sirius Rot, immunhistochemisch […]. Die […] Subepicardium, Myocardium und Subendocardium von transmuralen […] wurde quantitativ bestimmt und verglichen. Patienten, die eine Alprostadil (PGE 1)- Infusionen […]. Die […] Subepicardium, Myocardium und Subendocardium von der Kontrollgruppe betrug 608,56 ± 91,32 […]), 542,44 ± 197,20 […]^2 (sEndo), und 452,22 - 101,99 […]^2 (Myo) in den drei transmuralen-[…]. Alprostadil (PGE 1)-behandelte Patienten hatten im Vergleich dazu mit 1168,11 ± 165,04 […]), 1066,00 ± 94,63 […]^2 (SEndo), und 974,56 ± 87,12 […]^2 (Myocard), ungefähr 50% […]. Untersuchung hinsichtlich spezifischer immunohistochemischer […]: […]

Tierversuche = details: infused directly into hepatic veins, treated group; cited from earlier work
[6] = tested on: Patienten mit dilatativer CMP; test: Fibrosis degree and heart muscle fraction (Sirius red staining) in explanted hearts; assay type: in vivo; details: patients with dilated CMP
Excerpt: Die […] wurde getrennt im Subepicardium, Myocardium und dem Subendocardium bestimmt. Die Bestimmung […] 1,mm^2 wurde getrennt anhand von anti-CD34, von Willebrand-Faktor (vwf), vascular-endothelial-growth-factor (VEGF) , anti-Ki 67 (MIB 1) und Sirius Rot, immunhistochemisch […]. Die Bestimmung des Fibrosegrads und des Herzmuskelanteils bei Alprostadil (PGE 1)-behandelten Patienten (Fig.5) gegenüber der Kontrollgruppe zeigte, dass die Alprostadil (PGE1)- Infusionstherapie den Fibrosegrad bei […] CMP […] (15,35 ± 10,32% gegenüber 6,89 ± 3,59%, p <0,05, bei einem vergleichbaren Herzmuskelanteil (72,69 ± 5,25% gegenüber 68,75 ± 6,23%).

CCCCC[C@H](O)/C=C/[C@H]1[C@H](O)CC(=O)[C@@H]1CCCCCCC(=O)O [Alprostadil, Prostaglandin E1]
VEGF-positive Kapillaren/mm^2 (VEGF; Myocardium): 76,2 ± 4,9 /mm^2
VEGF-positive Kapillaren/mm^2 (VEGF; Subendocardium): 89,1 ± 5,7 /mm^2
VEGF-positive Kapillaren/mm^2 (VEGF; Subepicardium): 101,2 ± 5,5 /mm^2
Nierenfunktion (Paraaminohippurat-Clearance, Iothalamat-Clearance) [1]: bessere Nierenwerte
hämodynamischer Effekt [1]: besseren hämodynamischen Effekt
anti-CD34 reaktives Endothel (CD 34; Myocardium): 482,11 ± 79,86 mm^2
anti-CD34 reaktives Endothel (CD 34; Subendocardium): 482,11 ± 79,86 mm^2
anti-CD34 reaktives Endothel (CD 34; Subepicardium): 599,22 ± 107,17 mm^2
Wirkung bei akutem Leberversagen [2]: keine Wirkung
% Muskelanteil/mm^2 (Patienten): 74,9 ± 3,7%
Muskelzahl/mm^2 (Patienten): 982,68 ± 141,43 /mm^2
anti-vWf reaktive Endothelien ([3]; Myocardium): 360,00 ± 52,31 mm^2
anti-vWf reaktive Endothelien ([3]; Subendocardium): 408,00 ± 80,00 mm^2
Anzahl der MIB-1 positiven Zellen (MIB-1 (anti-Ki67); Myocardium): 15,44 ± 4,64 pro mm^2
Anzahl der MIB-1 positiven Zellen (MIB-1 (anti-Ki67); Subendocardium): 17,84 ± 4,23 pro mm^2
Anzahl der MIB-1 positiven Zellen (MIB-1 (anti-Ki67); Subepicardium): 20,22 ± 4,87 pro mm^2
klinischer Zustand (Patienten mit CMP [4]; end-stage heart failure, with increased ejection fraction and cardiac output, reduced NYHA stage and pulmonary circulation pressures): deutliche Verbesserung
maximal tolerierte Dosis (MTD) (Patienten mit CMP [4]; infusion via central right-heart catheter, escalated from 2,5 ng/kg/min until side effects occurred): 29 ± 1 ng/kg/min
hämodynamische Parameter im Vergleich zu den Ausgangswerten (Patienten mit CMP [4]; under infusion therapy): deutliche Verbesserung
Kapillardichte (Patienten mit CMP [5]; Myocardium (Myocard)): 974,56 ± 87,12 Kapillaren/mm^2
Kapillardichte (Patienten mit CMP [5]; Subendocardium (SEndo)): 1066,00 ± 94,63 Kapillaren/mm^2
Kapillardichte (Patienten mit CMP [5]; Subepicardium (sEpi)): 1168,11 ± 165,04 Kapillaren/mm^2
mehr Kapillaren als die Kontrollgruppe (Patienten mit CMP [5]; treated patients versus control group): ~50%
Leukozyten (serologisch) (Tierversuche): mehr Leukozyten
Fibrosegrad [6]: 6,89 ± 3,59%
Herzmuskelanteil [6]: 72,69 ± 5,25%
